# Measurements published in US10618900B2, “5-aromatic alkynyl substituted benzamide compound and preparation method, pharmaceutical composition, and use thereof” (SHANGHAI INSTITUTE OF MATERIA MEDICA, CHINESE ACADEMY OF …, priority 2015, dated 2020).
# Experiments:
# [1] = system: ICR mice; test: Mouse forced swimming experiment; type: in vivo; conditions: positive control, 10 mg/kg intraperitoneal, later 4 min of 6 min
# Experimental: Experimental principle: The principle of Mouse Forced Swimming Test (FST) is to allow the mouse to swim in a limited space from which it can not escape, thus inducing animal to non-movement state which reflects the animal's desperate behavior.
# Experimental animals: ICR mice, 20-28 g, both male and female
# Sample treatment: The test compounds were ground with 1% CMC (sodium carboxymethyl cellulose) aqueous solution to prepare a homogeneous solution. In vivo dose was 5 mg/kg, 10 mg/kg and 20 mg/kg, the compound was oral administered at 0.1 ml/10 g volume/body weight. Positive control drugs (amitriptyline and fluoxetine) were dissolved with 0.9% saline, in vivo dose was 10 mg/kg, administered by intraperitoneal injection at 0.1 ml/10 g volume/body weight. (Note: the mice were fasted for 8 h and drinked water ad libitum before the compound was given.)
# Experimental Methods: mice were grouped randomly. […] On the second day of the test, the mice were orally administered the compound. After 1 hour (0.5 hours after intraperitoneal injection), the mice were then put in water to record the immobility time in the later 4 min of 6 min.
# [2] = system: mice; test: Head twitches test (5-HTP induced); type: in vivo; conditions: positive control, FIG. 2
# Description: Experimental principle: Model Head Thrust Test (HTT) is first raised by Corne et al. in 1963, head twitches syndrome caused by 5-HT receptor excitement may be mediated through the 5-HT2 receptor. The head twitches behavior induced by 5-HTP in mice is more sensitive to antidepressants with different action mechanisms, such as citalopram, fluvoxamine and other 5-HT retake inhibitors, desipramine, maprotiline, nomifensine and other NA retake inhibitors and imipramine acting on both 5-HT and NA system.
# Experimental method: 20-24 g male mice were selected. 3 h before the test, 100 mg/kg pargyline was intraperitoneal injected and then intraperitoneal injected with test drugs or saline. 5-HTP (5 mg/kg, ip) was injected 30 min later. After 10 min, the observation was started and the number of mice head twitches in 6 min was recorded. The numbers of the head twitches of experimental group and the saline control group were compared.
# [3] = system: mice; test: Mouse tail suspension experiment; type: in vivo; conditions: positive control, FIG. 1
# Description: Experimental principle: Tail Suspension Test (TST) is a classic method which can quickly evaluate the efficacy of antidepressant drugs, excitement drugs, and sedative drugs. The principle is to use the status that the mouse give up struggle and enter the unique depression status after the tail was suspended and the attempt to escape was failed.
# Experimental method: 20-24 g male mice were selected and the site at 2 cm part from the end of the tail was attached to a horizontal stick, so that the animal entered inverted state, and it's head was about 5 cm from the table, and boards were hung on both sides to separate the animal's sight. The immobility time of the administration group and the control group within 6 min were compared.
# [4] = biological target: mGluR1 (Homo sapiens (Human), UniProt Q13255); test: mGluR5/1 selectivity test, HEK293/mGluR1 cell line, Fluo-8 calcium; type: cell-based; conditions: for IC50: HEK293/mGluR1 cell line; for mGluR5/mGluR1: selectivity ratio of IC50 values
# Description: Experimental material: HEK293/mGluR5 cell line, HEK293/mGluR1 cell line, Fluo-8 calcium ion fluorescent dye, positive control JNJ16259685
# [5] = biological target: mGluR5 (Homo sapiens (Human), UniProt P41594); test: In vitro activity test for mGluR5, HDB Fluo-8 calcium fluorescence detection (FLIPR); type: cell-based; conditions: HEK293/mGluR5 cell line
# Description: Experimental instrument: FLIPR Tetra real-time fluorescence imaging analysis system
# Experimental method: HDB Fluo-8 calcium fluorescence detection method
# Experimental principle: HDB Fluo-8 calcium ion fluorescence detection method is a fast, simple and reliable fluorescence detection method of intracellular calcium concentration changes. The Fluo 8-AM fluorescent dye is an […] derivative of Fluo 8 which can easily penetrate the cell membrane into the cell by culture. The fluorescent dye into the cell will be hydrolyzed by intracellular esterase, the resulting Fluo 8 cannot easily pass through the lipid bimolecular membrane as a polar molecule, and will retain in the cell, and combine with calcium (Ca^2+) to produce fluoresces.
# Cells expressing GPCR receptor protein (mGluR5) were first calibrated with a calcium ion sensitive fluorescent probe and then stimulated with the compound. After stimulation, the activation of the receptor lead to the calcium ion mobilization, and the fluorescent probe captures the calcium ion to induce the fluorescence signal. The signal can be read by a fluorescent plate reader. The fluorescent plate reader contains a sampling head for compound addition, thus enabling the change of the fluorescence value of the compound be read in real time. […]
# Chain of mGluR1 (Q13255 19-1194): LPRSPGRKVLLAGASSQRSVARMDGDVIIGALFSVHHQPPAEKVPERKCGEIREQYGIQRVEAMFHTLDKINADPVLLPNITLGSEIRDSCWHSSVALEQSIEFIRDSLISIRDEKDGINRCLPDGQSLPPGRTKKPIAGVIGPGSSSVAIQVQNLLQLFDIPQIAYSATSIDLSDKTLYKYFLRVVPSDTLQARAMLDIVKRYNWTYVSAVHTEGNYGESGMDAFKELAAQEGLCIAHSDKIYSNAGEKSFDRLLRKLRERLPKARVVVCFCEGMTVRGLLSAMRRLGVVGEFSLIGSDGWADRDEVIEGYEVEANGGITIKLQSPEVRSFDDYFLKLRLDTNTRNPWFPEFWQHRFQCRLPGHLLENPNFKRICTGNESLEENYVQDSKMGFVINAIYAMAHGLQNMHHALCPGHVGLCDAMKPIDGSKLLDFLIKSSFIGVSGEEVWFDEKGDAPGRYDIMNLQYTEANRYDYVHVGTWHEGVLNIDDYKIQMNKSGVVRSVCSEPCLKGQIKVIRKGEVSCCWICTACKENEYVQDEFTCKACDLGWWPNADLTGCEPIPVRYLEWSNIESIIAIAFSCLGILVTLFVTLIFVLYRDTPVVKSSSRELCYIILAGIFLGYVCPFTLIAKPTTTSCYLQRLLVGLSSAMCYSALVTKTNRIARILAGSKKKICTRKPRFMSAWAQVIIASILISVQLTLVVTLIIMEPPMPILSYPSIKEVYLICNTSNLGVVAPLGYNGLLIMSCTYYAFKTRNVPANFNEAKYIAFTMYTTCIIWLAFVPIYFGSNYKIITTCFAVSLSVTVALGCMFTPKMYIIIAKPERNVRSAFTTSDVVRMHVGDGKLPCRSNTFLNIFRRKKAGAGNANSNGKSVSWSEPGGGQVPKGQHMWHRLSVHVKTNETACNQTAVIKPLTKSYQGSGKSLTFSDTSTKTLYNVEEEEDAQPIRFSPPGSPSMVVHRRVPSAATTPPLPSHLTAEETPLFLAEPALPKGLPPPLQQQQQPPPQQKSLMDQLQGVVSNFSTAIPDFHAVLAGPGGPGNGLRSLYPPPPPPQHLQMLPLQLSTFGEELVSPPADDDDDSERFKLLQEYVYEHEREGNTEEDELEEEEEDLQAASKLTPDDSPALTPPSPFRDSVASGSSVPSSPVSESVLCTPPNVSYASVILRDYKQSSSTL
# Chain of mGluR5 (P41594 21-1212): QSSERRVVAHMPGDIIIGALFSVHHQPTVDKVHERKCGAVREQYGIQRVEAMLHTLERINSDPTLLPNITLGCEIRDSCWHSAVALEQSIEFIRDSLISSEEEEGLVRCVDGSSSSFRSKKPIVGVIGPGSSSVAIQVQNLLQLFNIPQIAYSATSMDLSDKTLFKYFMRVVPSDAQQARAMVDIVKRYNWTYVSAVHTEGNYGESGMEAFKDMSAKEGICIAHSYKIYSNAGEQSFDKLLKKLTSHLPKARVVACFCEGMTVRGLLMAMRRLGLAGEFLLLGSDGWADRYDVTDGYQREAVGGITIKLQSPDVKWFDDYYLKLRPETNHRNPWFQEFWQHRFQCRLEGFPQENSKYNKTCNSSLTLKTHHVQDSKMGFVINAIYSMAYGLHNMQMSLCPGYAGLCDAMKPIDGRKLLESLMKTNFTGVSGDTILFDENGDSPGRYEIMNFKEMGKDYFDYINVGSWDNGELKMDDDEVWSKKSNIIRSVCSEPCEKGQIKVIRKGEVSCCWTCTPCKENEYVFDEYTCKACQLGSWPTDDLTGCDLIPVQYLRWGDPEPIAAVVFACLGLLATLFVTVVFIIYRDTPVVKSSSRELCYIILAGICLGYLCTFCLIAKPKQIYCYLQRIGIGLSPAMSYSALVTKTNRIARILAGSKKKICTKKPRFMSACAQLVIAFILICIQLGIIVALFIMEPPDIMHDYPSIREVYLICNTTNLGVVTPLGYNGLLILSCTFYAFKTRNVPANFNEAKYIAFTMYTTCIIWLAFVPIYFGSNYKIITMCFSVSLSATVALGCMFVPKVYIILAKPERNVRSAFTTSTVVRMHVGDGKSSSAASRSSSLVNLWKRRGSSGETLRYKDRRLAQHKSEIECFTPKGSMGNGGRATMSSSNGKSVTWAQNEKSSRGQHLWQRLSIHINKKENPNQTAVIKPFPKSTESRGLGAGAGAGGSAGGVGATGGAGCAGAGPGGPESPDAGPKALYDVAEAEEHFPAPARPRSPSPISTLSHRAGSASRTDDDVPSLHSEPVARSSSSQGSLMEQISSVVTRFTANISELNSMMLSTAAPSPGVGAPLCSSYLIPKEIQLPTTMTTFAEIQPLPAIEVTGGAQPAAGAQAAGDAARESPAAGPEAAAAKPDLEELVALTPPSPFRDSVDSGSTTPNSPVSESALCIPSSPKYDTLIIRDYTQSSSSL
Compound,IC50 [5] [µM],IC50 [4] [µM],mGluR5/mGluR1 [4],also measured
"CNCCC(Oc1ccc(C(F)(F)F)cc1)c1ccccc1 (stereo not shown) [Fluoxetine, fluoxetine, reference compound]",,,,immobility time (%) Mean ± SEM [1]: 84.79 ± 12.73%; number of head twitches [2]: significantly improve; immobility time in the mouse tail suspension test [3]: significantly improve
"COC1CCC(C(=O)c2ccc3nc4c(cc3c2)CCCO4)CC1 (stereo not shown) [JNJ16259685, reference compound]",,,,IC50 ([4]; positive control): 0.0912 µM
"O=C(Nc1ccc(F)cc1)c1cc(C#Cc2ccccn2)ccc1F [ZD001, 2-fluoro-5-(pyridin-2-ethynyl)-N-(4-fluorophenyl)benzamide]",0.0139,> 100,>7194,
"Cc1nc(C#Cc2ccc(F)c(C(=O)Nc3ccc(F)cc3)c2)cs1 [ZD004, 2-fluoro-N-(4-fluorophenyl)-5-((2-methyl-thiZaol-4-yl)ethynyl)benzamide]",0.011,> 100,>9091,
"Cc1nc(C#Cc2cccc(C(=O)Nc3ccc(C#N)cc3)c2)cs1 [ZD010, N-(4-cyanophenyl)-3-((2-methylthiazol-4-yl)ethynyl)benzamide]",0.0866,,,
Cc1nc(C#Cc2cccc(C(=O)N3CCc4ccccc4C3C)c2)cs1 (stereo not shown) [ZD011],0.0326,,,
Cc1nc(C#Cc2cccc(C(=O)Nc3ccccc3)c2)cs1 [ZD014],0.0148,> 100,>6757,
"Cc1nc(C#Cc2cccc(C(=O)Nc3cccc(F)c3)c2)cs1 [ZD017, N-(3-fluorophenyl)-3-((2-methylthiazol-4-yl)ethynyl)benzamide]",0.133,,,
"Cc1nc(C#Cc2cccc(C(=O)Nc3cccc(C#N)c3)c2)cs1 [ZD019, N-(3-cyanophenyl)-3-((2-methylthiazol-4-yl)ethynyl)benzamide]",0.134,,,
"O=C(Nc1ccc(F)cc1)c1cc(C#Cc2ccccn2)ccc1Cl [ZD036, 2-chloro-N-(4-fluorophenyl)-5-(pyridin-2-ethynyl)benzamide]",0.0203,> 100,>4929,
"Cc1nc(C#Cc2ccc(Cl)c(C(=O)Nc3ccc(F)cc3)c2)cs1 [ZD037, 2-chloro-N-(4-fluorophenyl)-5-((2-methyl-thiazol-4-yl)ethynyl)benzamide]",0.00731,> 100,>13676,
"O=C(Nc1ccc(F)cc1)c1cc(C#Cc2ccncc2)ccc1F [ZD039, 2-fluoro-N-(4-fluorophenyl)-5-(pyridin-4-ethynyl)benzamide]",0.382,,,
"Cc1ccc(C#Cc2ccccn2)cc1C(=O)Nc1ccc(F)cc1 [ZD040, N-(4-fluorophenyl)-2-methyl-5-(pyridin-2-ethynyl)benzamide]",0.104,,,
"Cc1nc(C#Cc2ccc(C)c(C(=O)Nc3ccc(F)cc3)c2)cs1 [ZD041, N-(4-fluorophenyl)-2-methyl-5-((2-methyl-thiazol-4-yl)ethynyl)benzamide]",0.108,,,
"O=C(Nc1cccnc1)c1cc(C#Cc2ccccn2)ccc1F [ZD042, 2-fluoro-5-(pyridin-2-ethynyl)-N-(pyridin-3-yl)benzamide]",0.0194,> 100,>5155,
"N#Cc1ccc(NC(=O)c2cc(C#Cc3ccccn3)ccc2F)cc1 [ZD044, N-(4-cyanophenyl)-2-fluoro-5-(pyridin-2-ethynyl)benzamide]",0.0865,,,
"Cc1nc(C#Cc2ccc(F)c(C(=O)Nc3ccc(C#N)cc3)c2)cs1 [ZD045, N-(4-cyanophenyl)2-fluoro-5-((2-methyl-thiazol-4-yl)ethynyl)benzamide]",0.0535,,,
"O=C(c1cc(C#Cc2ccccn2)ccc1F)N1CCc2ccccc2C1 [ZD046, (3,4-dihydro-isoquinolin-2(1H)-yl)(2-fluoro-5-(pyridin-2-ylethynyl)phenyl) methanone]",0.0152,> 100,>6601,
"Cc1nc(C#Cc2ccc(F)c(C(=O)N3CCc4ccccc4C3)c2)cs1 [ZD047, (3,4-dihydro-isoquinolin-2(1H)-yl)(2-fluoro-5-((2-methyl-thiazol-4-yl)ethynyl)phenyl)methanone]",0.00665,> 100,>15044,
"CC1c2ccccc2CCN1C(=O)c1cc(C#Cc2ccccn2)ccc1F (stereo not shown) [ZD048, (2-fluoro-5-(pyridin-2-ylethynyl)phenyl) (1-methyl-3,4-dihydro-isoquinolin-2(1H)-yl)methanone]",0.0713,,,
"Cc1nc(C#Cc2ccc(F)c(C(=O)N3CCc4ccccc4C3C)c2)cs1 (stereo not shown) [ZD049, (2-fluoro-5-((2-methyl-thiazol-4-yl)ethynyl)phenyl)(1-methyl-3,4-dihydro-isoquinolin-2(1H)-yl)methanone]",0.038,> 100,>2632,
"CN(C)CCC=C1c2ccccc2CCc2ccccc21 [amitriptyline, reference compound]",,,,immobility time (%) Mean ± SEM [1]: significantly improve; immobility time (%) Mean ± SEM ([1]; listed as CCAmitriptyline): 15.34 ± 5.96 %
